In patent publication US9393225B2, “Melanoma chemoprevention” (University of Pittsburgh—Of the Commonwealth System of …, priority 2012, dated 2016):
Where two headings read alike, the source gives them in different places.

Legend:
SK-MEL37 = settings: different concentrations of SFN for 24, 48, or 72 h, FIG. 1
SK-MEL 31 cells [1] = settings: 24 hours
Procedure: (§1) Apoptosis induction in SFN-treated SK-MEL 31 cells was assessed by (i) quantification of cytoplasmic histone associated DNA fragments, (ii) Western blot analysis for PARP cleavage and (iii) DAPI dye for nuclear morphology assay. For quantification of cytoplasmic histone-associated DNA fraction, SK-MEL 31 cells were seeded at 4×10^3 cells/well in 96-well plate and allowed to attach overnight. […] After 24 hours, the floating and attached cells were pelleted and lysed with lysis buffer supplied with the cell death detection ELISA kit, lysates were assayed for apoptosis according to the manual. SK-MEL 31 cells were seeded at 1×10^4 cells/well on a round glass coverslip in 12 well plates. Cells were then incubated for 24 hours with 0, 10, or 20 μM SFN, attached cells were fixed with 3% paraformaldehyde in PBS, permeabilized with 1% TRITON® X-100, stained with DAPI dye and inspected under a fluorescent microscope after stained with DAPI.

PARP = settings: 20 μM SFN, from 16 to 24 hour after treatment
Procedure: as §1
Cell lysate was cleared by centrifugation at 16000 rpm for 15 min. Lysate proteins were resolved by SDS-PAGE gel electrophoresis and transferred onto nitrocellulose membrane. The membrane was immersed into a phosphate buffered saline (PBS) solution containing 0.2% TWEEN® 20 and 5% (w/v) non-fat dry milk, and then incubated with desired primary antibody for 1 hour at room temperature. […]

Bax and Bak = settings: 20 μM SFN
Procedure: (§2) Cell lysate was cleared by centrifugation at 16000 rpm for 15 min. Lysate proteins were resolved by SDS-PAGE gel electrophoresis and transferred onto nitrocellulose membrane. The membrane was immersed into a phosphate buffered saline (PBS) solution containing 0.2% TWEEN® 20 and 5% (w/v) non-fat dry milk, and then incubated with desired primary antibody for 1 hour at room temperature. After incubation with appropriate secondary antibody, the immunoreactive bands were visualized using enhanced chemiluminescence method. The conjugated horseradish peroxidase (HRP) secondary antibody was deactivated with sodium azide, then membranes were re-probed with anti-actin antibody to standardize protein loading. For cytochrome c and Smac/DIABLO, the cytosolic fractions were prepared with the PROTEOEXTRACT™ Subcellular Proteome Extraction kit according to the manufacturer's instructions and Western blot analysis were performed as described above.

Bcl-2 = settings: 20 μM SFN, all time points
Procedure: as §2

Bcl-XL = settings: 20 μM SFN, evident from the 2 hour time point
Procedure: as §2

Smac and cytochrome c = settings: SFN incubation; significant increases after 8 hours
Procedure: as §2

cIAP1 and XIAP = settings: SFN treatment, with time increasing
Procedure: as §2

[2] = test system: procaspase-9, procaspase-8 and procaspase-3; settings: 20 μM SFN, 24 hour time point
Procedure: as §2

caspase-8 = settings: 20 μM SFN
Text: (§3) RPMI 1640, penicillin/streptomycin antibiotic mixture, and fetal bovine serum were from Gibco (Grand Island, N.Y.), propidium iodide and 4′,6′-diamidino-2-phenylindole-dihydrochloride (DAPI) were from Sigma (St Louis, Mo.). LIPOFECTAMINE 2000™ and G418 were purchased from Invitrogen (Carlsbad, Calif.). RNaseA was purchased from Promega (Madison, Wis.), and the reagents for electrophoresis were from Bio-Rad (Hercules, Calif.). Antibodies for Bcl-XL, Bak and cytochrome c were purchased from Santa Cruz Biotechnology (Santa Cruz, Calif.), antibodies specific for Bax, Smac/DIABLO, cleaved caspase-3 and cleaved caspase-8, cleaved caspase-9, cIAP1 and poly (ADP-ribose) polymerase (PARP) were purchased from Cell Signaling Technology (Beverly, Mass.), anti Bcl-2 antibody was purchased from Dakocytomation (Denmark), anti XIAP (X-linked inhibitor of apoptosis) antibody was purchased from BD PharMingen (San Diego, Calif.). Anti actin antibody was purchased from Oncogene Research Products (Boston, Mass.). The caspase inhibitors z-VAD fmk (general caspase inhibitor), z-IETD fmk (caspase-8 specific inhibitor) and z-LEHD fmk (caspase-9 specific inhibitor) were purchased from MP Biochemicals (Aurora, Ohio). The caspase-8 and caspase-9 colorimetric assay kits were purchased from R&D systems (Minneapolis, Minn.). Cytoplasmic histone associated DNA fragments detection ELISA kit was purchased from Roche Diagnostics GmbH (Mannheim, Germany). ProteoExtract™ Subcellular Proteome Extraction kit was purchased from Calbiochem (San Diego, Calif.).
(§4) Caspases are aspartate-specific cysteine proteases that play critical roles in apoptosis. Activation of caspases results in cleavage and inactivation of key cellular proteins, including the DNA repair enzyme PARP.

caspase-9 = settings: 20 μM SFN, 24 hours
Text: as §3, §4

[3] = test system: Cyclin B1, Cdk1, and Cdc25; settings: SK-MEL31 cells, 20 μM SFN; FIG. 2
Text: The blots were stripped and re-probed with anti-actin antibody to normalize for differences in protein loading.

[4] = mice, at the doses used
Procedure: (§5) Female athymic mice (6-week-old) were purchased from Taconic (Germantown, N.Y.). SK-MEL 31 cells were suspended in pharmacological grade normal saline, and 0.1 ml suspension containing 5×10^6 cells was injected subcutaneously on right flank of each mouse. Mice were randomized into two groups of 10 mice per group. Experimental animals were gavaged with SFN (5.6 μmol SFN in 0.1 ml normal saline) three times per week (Monday, Wednesday and Friday) beginning two weeks before tumor implantation. Control mice received an equal volume of the vehicle. Tumor volume was determined based on measurement of the length and width of the tumor, […]. Statistical significance of difference in tumor volume was assessed by Student's t-test. Upon the termination of the experiment, the tumor tissues were harvested and processed for analysis of apoptotic bodies by immunohistochemistry method. Tumor tissues were embedded in paraffin, sectioned (6 μm), de-paraffinized and processed for determination of apoptotic bodies using APOTAG® Plus Peroxidase In Situ Apoptosis detection kit (Intergen, NY) according to the manufacturer's instructions. Brown color apoptotic bodies in tumor sections of control and SFN-treated group were counted by two pathologists independently and blindly under a microscope at 400× magnification. Four randomly selected fields on each tumor section were counted for apoptotic bodies.

SK-MEL 31 xenografts = test system: SK-MEL 31 xenografts
Procedure: as §5

SK-MEL 31 cells [5] = settings: 20 μM SFN, 24 hours, p<0.05
STAT3 = settings: administered orally to SCID mice; FIG. 3
SK-MEL 31 cells [6] = test: Trypan blue dye exclusion assay (cell proliferation / viability); settings: for number of viable cells compared with control: 24 hour

C[S+]([O-])CCCCN=C=S (centres unmarked) [SFN, 1-isothiocyanato-4-(methylsulfinyl)-butane]
melanoma cell growth in vitro (cell viability) (SK-MEL37): inhibits melanoma cell growth in vitro
increase in cytoplasmic histone associated DNA fragments compared with DMSO treated control (SK-MEL 31 cells [1]; 5 μM SFN): ~4.7 fold
increase in cytoplasmic histone associated DNA fragments compared with DMSO treated control (SK-MEL 31 cells [1]; 10 μM SFN): ~11.4 fold
condensed nucleus ratio (SK-MEL 31 cells [1]; SFN 10 or 20 μM, FIG. 5C): increased significantly
PARP cleavage (PARP): obvious increase of PARP cleavage
Bax and Bak protein level (Bax and Bak): no significant level changes
Bcl-2 protein level (Bcl-2): No marked change
Bcl-XL protein level (Bcl-XL): down-regulation
cytosolic levels of Smac and cytochrome c (Smac and cytochrome c): time-dependent increases
cIAP1 and XIAP level (cIAP1 and XIAP): consecutive cIAP1 and XIAP level decreases
cleavage of procaspase-9, procaspase-8 and procaspase-3 [2]: resulted in cleavage
caspase-8 activity increase compared with the control group (caspase-8; 16 hour): 45%
caspase-8 activity increase compared with the control group (caspase-8; 24 hour): 73%
increase in caspase-9 activity (caspase-9): 148%
melanoma cell Cyclin B1, Cdk1, and Cdc25 [3]: inhibits
side effect (weight loss, organ weight difference) [4]: No side effect was observed
reduction in tumor volume (SK-MEL 31 xenografts; 16 days after tumor implantation, versus control, p<0.01): 50%
average tumor volume (SK-MEL 31 xenografts; 16 days after tumor implantation, gavage 5.6 μmol SFN three times per week): 154.4±95.4 mm^3
tumor wet weight (SK-MEL 31 xenografts; oral SFN versus control, p<0.01): significant decrease
count of apoptotic bodies in tumor sections versus controls (TUNEL assay) (SK-MEL 31 xenografts; oral SFN, p<0.05): ~4.4 fold
cell cycle distribution (SK-MEL 31 cells [5]): significantly increase of Sub-G0/G1 and G2M phase and decreased G0/G1 phase cell number
STAT3 expression in human melanoma cells transplanted into mice (STAT3): lowered STAT3 expression
number of viable cells compared with control (SK-MEL 31 cells [6]; 10 μM SFN): 58%
number of viable cells compared to control (SK-MEL 31 cells [6]; 10 μM SFN, 48 hour): 27%
number of viable cells compared to control (SK-MEL 31 cells [6]; 10 μM SFN, 72 hour): 19%
number of viable cells compared with control (SK-MEL 31 cells [6]; 20 μM SFN): 46%
number of viable cells compared to control (SK-MEL 31 cells [6]; 20 μM SFN, 48 hour): 23%
number of viable cells compared to control (SK-MEL 31 cells [6]; 20 μM SFN, 72 hour): 13%
number of viable cells compared with control (SK-MEL 31 cells [6]; 40 μM SFN): 26%
number of viable cells compared to control (SK-MEL 31 cells [6]; 40 μM SFN, 48 hour): 10%
number of viable cells compared to control (SK-MEL 31 cells [6]; 40 μM SFN, 72 hour): 10%
melanoma cell growth in vitro (cell viability) (SK-MEL 31 cells [6]; SK-MEL31, different concentrations of SFN for 24, 48, or 72 h, FIG. 1): inhibits melanoma cell growth in vitro
